Each compound was assayed against T1, Full-length USP19 (Homo sapiens, UniProt O94966) (assay: USP19 fluorescence polarisation (FP) homogeneous assay with Ubiquitin-Lys-TAMRA substrate). Details: 2.5 nM USP19, 30 min pre-incubation, average of at least two duplicate experiments.
T1 construct: Full-length USP19 was purchased from Boston Biochem (E-576); purchased Boston Biochem E-576
T1 sequence (O94966 1-1318): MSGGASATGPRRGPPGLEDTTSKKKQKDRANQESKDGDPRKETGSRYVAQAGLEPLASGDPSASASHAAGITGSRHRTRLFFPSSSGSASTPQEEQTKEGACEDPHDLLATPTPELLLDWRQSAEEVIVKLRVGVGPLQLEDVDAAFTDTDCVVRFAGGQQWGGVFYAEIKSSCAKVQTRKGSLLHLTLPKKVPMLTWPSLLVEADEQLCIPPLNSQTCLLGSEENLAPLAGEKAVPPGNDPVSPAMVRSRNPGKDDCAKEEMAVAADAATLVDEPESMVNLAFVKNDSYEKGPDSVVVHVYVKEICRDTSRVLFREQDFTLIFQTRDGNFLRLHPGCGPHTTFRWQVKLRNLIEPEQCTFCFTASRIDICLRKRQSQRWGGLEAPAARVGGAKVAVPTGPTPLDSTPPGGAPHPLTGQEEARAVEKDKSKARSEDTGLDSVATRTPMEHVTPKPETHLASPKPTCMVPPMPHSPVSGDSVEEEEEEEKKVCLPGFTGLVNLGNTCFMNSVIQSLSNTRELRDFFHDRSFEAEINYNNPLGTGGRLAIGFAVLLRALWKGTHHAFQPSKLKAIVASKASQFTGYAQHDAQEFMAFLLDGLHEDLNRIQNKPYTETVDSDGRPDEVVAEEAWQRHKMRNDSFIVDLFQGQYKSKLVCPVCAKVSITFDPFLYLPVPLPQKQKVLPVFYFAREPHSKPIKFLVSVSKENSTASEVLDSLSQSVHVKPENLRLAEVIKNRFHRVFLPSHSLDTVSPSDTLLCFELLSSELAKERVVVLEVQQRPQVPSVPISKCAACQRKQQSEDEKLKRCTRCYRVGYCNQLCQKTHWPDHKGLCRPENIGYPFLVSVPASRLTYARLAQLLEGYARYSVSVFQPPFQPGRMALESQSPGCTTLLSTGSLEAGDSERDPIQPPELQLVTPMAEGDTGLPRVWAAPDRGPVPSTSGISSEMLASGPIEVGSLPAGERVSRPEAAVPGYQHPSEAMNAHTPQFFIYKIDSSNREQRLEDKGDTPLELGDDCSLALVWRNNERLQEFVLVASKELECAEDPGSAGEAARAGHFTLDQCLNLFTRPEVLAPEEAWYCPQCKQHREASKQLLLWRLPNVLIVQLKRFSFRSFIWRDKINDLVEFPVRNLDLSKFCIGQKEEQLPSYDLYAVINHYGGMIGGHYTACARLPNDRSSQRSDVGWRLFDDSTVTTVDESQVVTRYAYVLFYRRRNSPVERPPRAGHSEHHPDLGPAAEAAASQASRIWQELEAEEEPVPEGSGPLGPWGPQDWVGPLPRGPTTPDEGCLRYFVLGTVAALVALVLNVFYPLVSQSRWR
Format: biochemical
How it was run: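 Full-length USP19 preincubated 30 min at RT with inhibitor (200 μM to 2 μM series, 8–18 points) before adding 500 nM Ubiquitin-Lys-TAMRA substrate.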

Row | IC50 | Compound
1 | < 0.5 µM | C[C@H](CC1CCCCC1)C(=O)N1CCC(O)(Cn2cc(S(C)(=N)=O)c(-c3ccccc3)cc2=O)C2(CCCC2)C1 (stereo partly drawn) [Example 74, 1-((7-((R)-3-Cyclohexyl-2-methylpropanoyl)-10-hydroxy-7-azaspiro[4.5]decan-10-yl)methyl)-5-(S-methylsulfonimidoyl)-4-phenylpyridin-2(1H)-one]
2 | < 0.5 µM | C[C@H](CC(F)(F)F)C(=O)N1CCC(O)(Cn2cc(N=S(C)(C)=O)c(-c3ccccc3)cc2=O)C2(CCCC2)C1 (stereo partly drawn) [Example 75, 5-((Dimethyl(oxo)-λ^6-sulfaneylidene)amino)-1-((10-hydroxy-7-((R)-4,4,4-trifluoro-2-methylbutanoyl)-7-azaspiro[4.5]decan-10-yl)methyl)-4-phenylpyridin-2(1H)-one]
3 | < 0.5 µM | CSc1cn(CC2(O)CCN(C(=O)[C@H](C)CC3CCCCC3)CC23CCCC3)c(=O)cc1Cl (stereo partly drawn) [Example 76, 4-Chloro-1-((7-((R)-3-cyclohexyl-2-methylpropanoyl)-10-hydroxy-7-azaspiro[4.5]decan-10-yl)methyl)-5-(methylthio)pyridin-2(1H)-one]
4 | < 0.5 µM | C[C@H](CC1CCCCC1)C(=O)N1CCC(O)(Cn2cc(S(C)(=O)=O)c(Cl)cc2=O)C2(CCCC2)C1 (stereo partly drawn) [Example 77, 4-Chloro-1-((7-((R)-3-cyclohexyl-2-methylpropanoyl)-10-hydroxy-7-azaspiro[4.5]decan-10-yl)methyl)-5-(methylsulfonyl)pyridin-2(1H)-one]
5 | < 0.5 µM | CSc1cn(CC2(O)CCN(C(=O)[C@H](C)CC3CCCCC3)CC23CCCC3)c(=O)cc1-c1ccccc1 (stereo partly drawn) [Example 78, 1-((7-((R)-3-Cyclohexyl-2-methylpropanoyl)-10-hydroxy-7-azaspiro[4.5]decan-10-yl)methyl)-5-(methylthio)-4-phenylpyridin-2(1H)-one]
6 | < 0.5 µM | C[C@H](CC1CCCCC1)C(=O)N1CCC(O)(Cn2cc([S+](C)[O-])c(-c3ccccc3)cc2=O)C2(CCCC2)C1 (stereo partly drawn) [Example 79, 1-((7-((R)-3-Cyclohexyl-2-methylpropanoyl)-10-hydroxy-7-azaspiro[4.5]decan-10-yl)methyl)-5-(methylsulfinyl)-4-phenylpyridin-2(1H)-one]
7 | < 0.5 µM | C[C@H](CC1CCCCC1)C(=O)N1CCC(O)(Cn2cc(S(C)(=O)=O)c(-c3ccccc3)cc2=O)C2(CCCC2)C1 (stereo partly drawn) [Example 80, 1-((7-((R)-3-Cyclohexyl-2-methylpropanoyl)-10-hydroxy-7-azaspiro[4.5]decan-10-yl)methyl)-5-(methylsulfonyl)-4-phenylpyridin-2(1H)-one]
8 | 50 to 250 µM | CN(Cc1ccccc1)C(=O)N1CCC(O)(Cn2cnc(-c3ccccc3F)cc2=O)CC1 [Example 81, N-Benzyl-4-((4-(2-fluorophenyl)-6-oxopyrimidin-1(6H)-yl)methyl)-4-hydroxy-N-methylpiperidine-1-carboxamide]
9 | < 0.5 µM | CN(C)C(=O)c1cn(CC2(O)CCN(C(=O)N(C)CC3CCCCC3)CC23CCCC3)c(=O)cc1-c1ccccc1 (centres unmarked) [Example 82, N-(Cyclohexylmethyl)-10-((5-(dimethylcarbamoyl)-2-oxo-4-phenylpyridin-1(2H)-yl)methyl)-10-hydroxy-N-methyl-7-azaspiro[4.5]decane-7-carboxamide]
10 | 50 to 250 µM | CN(C)C(=O)c1cn(CC2(O)CCN(C(=O)Oc3ccc([N+](=O)[O-])cc3)CC23CCCC3)c(=O)cc1-c1ccccc1 (centres unmarked) [Example 83, 4-Nitrophenyl 10-((5-(dimethylcarbamoyl)-2-oxo-4-phenylpyridin-1(2H)-yl)methyl)-10-hydroxy-7-azaspiro[4.5]decane-7-carboxylate]
11 | 5 to 50 µM | CC(C)COC(=O)N1CCC(O)(Cn2cc(C(=O)N(C)C)c(-c3ccccc3)cc2=O)C2(CCCC2)C1 (centres unmarked) [Example 84, Isobutyl 10-((5-(dimethylcarbamoyl)-2-oxo-4-phenylpyridin-1(2H)-yl)methyl)-10-hydroxy-7-azaspiro[4.5]decane-7-carboxylate]
12 | < 0.5 µM | CN(C)C(=O)c1cn(CC2(O)CCN(C(=O)NCc3ccccc3)CC23CCCC3)c(=O)cc1-c1ccccc1 (centres unmarked) [Example 85, N-Benzyl-10-((5-(dimethylcarbamoyl)-2-oxo-4-phenylpyridin-1(2H)-yl)methyl)-10-hydroxy-7-azaspiro[4.5]decane-7-carboxamide]
13 | 5 to 50 µM | CN(C)C(=O)c1cn(CC2(O)CCN(C(=O)N(C)C)CC23CCCC3)c(=O)cc1-c1ccccc1 (centres unmarked) [Example 86, 10-((5-(Dimethylcarbamoyl)-2-oxo-4-phenylpyridin-1(2H)-yl)methyl)-10-hydroxy-N,N-dimethyl-7-azaspiro[4.5]decane-7-carboxamide]
14 | < 0.5 µM | CN(C)C(=O)c1cn(CC2(O)CCN(C(=O)N(C)Cc3ccccc3)CC23CCCC3)c(=O)cc1-c1ccccc1 (centres unmarked) [Example 87, N-Benzyl-10-((5-(dimethylcarbamoyl)-2-oxo-4-phenylpyridin-1(2H)-yl)methyl)-10-hydroxy-N-methyl-7-azaspiro[4.5]decane-7-carboxamide]
15 | < 0.5 µM | CN(C)C(=O)c1cn(CC2(O)CCN(C(=O)N3CCC(C(F)(F)F)C3)CC23CCCC3)c(=O)cc1-c1ccccc1 (centres unmarked) [Example 88, 1-((10-Hydroxy-7-(3-(trifluoromethyl)pyrrolidine-1-carbonyl)-7-azaspiro[4.5]decan-10-yl)methyl)-N,N-dimethyl-6-oxo-4-phenyl-1,6-dihydropyridine-3-carboxamide]
16 | 5 to 50 µM | CN(C)C(=O)c1cn(CC2(O)CCN(C(=O)N(C)C3CCCCC3)CC23CCCC3)c(=O)cc1-c1ccccc1 (centres unmarked) [Example 89, N-Cyclohexyl-10-((5-(dimethylcarbamoyl)-2-oxo-4-phenylpyridin-1(2H)-yl)methyl)-10-hydroxy-N-methyl-7-azaspiro[4.5]decane-7-carboxamide]
17 | 0.5 to 5 µM | O=C(N1CCC(O)(Cn2ccncc2=O)C2(CCCC2)C1)N1CCOC[C@H]1c1ccccc1 (stereo partly drawn) [Example 90, 1-((10-Hydroxy-7-((R)-3-phenylmorpholine-4-carbonyl)-7-azaspiro[4.5]decan-10-yl)methyl)pyrazin-2(1H)-one]
18 | 0.5 to 5 µM | O=C(N1CCC(O)(Cn2ccncc2=O)C2(CCCC2)C1)N1CCNC[C@H]1c1ccccc1 (stereo partly drawn) [Example 91, 1-((10-Hydroxy-7-((R)-2-phenylpiperazine-1-carbonyl)-7-azaspiro[4.5]decan-10-yl)methyl)pyrazin-2(1H)-one]
19 | < 0.5 µM | Cc1cn(CC2(O)CCN(C(=O)N3CCNC[C@H]3c3ccccc3)CC23CCCC3)c(=O)cn1 (stereo partly drawn) [Example 92, 1-((10-Hydroxy-7-((R)-2-phenylpiperazine-1-carbonyl)-7-azaspiro[4.5]decan-10-yl)methyl)-5-methylpyrazin-2(1H)-one]
20 | 5 to 50 µM | Cc1nccn(CC2(O)CCN(C(=O)N3CCNC[C@H]3c3ccccc3)CC23CCCC3)c1=O (stereo partly drawn) [Example 93, 1-((10-Hydroxy-7-((R)-2-phenylpiperazine-1-carbonyl)-7-azaspiro[4.5]decan-10-yl)methyl)-3-methylpyrazin-2(1H)-one]
21 | 50 to 250 µM | C[C@@H]1CN(CC2(O)CCN(C(=O)[C@H](C)CC(F)(F)F)CC23CCCC3)C(=O)CO1 (stereo partly drawn) [Example 94, (6R)-4-((10-Hydroxy-7-((R)-4,4,4-trifluoro-2-methylbutanoyl)-7-azaspiro[4.5]decan-10-yl)methyl)-6-methylmorpholin-3-one]
22 | 50 to 250 µM | C[C@H](CC(F)(F)F)C(=O)N1CCC(O)(CN2CC(C3CC3)OCC2=O)C2(CCCC2)C1 (stereo partly drawn) [Example 95, 6-Cyclopropyl-4-((10-hydroxy-7-((R)-4,4,4-trifluoro-2-methylbutanoyl)-7-azaspiro[4.5]decan-10-yl)methyl)morpholin-3-one]
23 | 50 to 250 µM | C[C@H](CC(F)(F)F)C(=O)N1CCC(O)(CN2C(=O)COCC23CC3)C2(CCCC2)C1 (stereo partly drawn) [Example 96, 4-((10-Hydroxy-7-((R)-4,4,4-trifluoro-2-methylbutanoyl)-7-azaspiro[4.5]decan-10-yl)methyl)-7-oxa-4-azaspiro[2.5]octan-5-one]

— patent US20220033397A1, “PHARMACEUTICAL COMPOUNDS AND THEIR USE AS INHIBITORS OF UBIQUITIN SPECIFIC PROTEASE 19 (USP19)” (ALMAC DISCOVERY LIMITED, priority 2018, published 2022)
